Measured values reported in patent US20250212880A1, “COMPOSITION FOR COATING PLANT SEED” (priority 2022, published 2025).

Legend:
Assay type in all cases: in vivo
[1] = system: Zea mays; assay: Cultivation of Zea mays from coated seeds under non-stress conditions; details: dent corn, 3 weeks (21 days) after seeding, seed coating Trp 0.045-0.45 g and/or allantoin 50 or 500 g per tonne of seeds
Procedure: Dent corn seeds (100 g; the variety: Snow-dent “Otoha”) were coated with 800 μL of a coating solution comprising tryptophan, allantoin, polyvinyl alcohol, and a coloring dye in water using a coater (SATEC). Coating was performed using either or both of tryptophan in an amount of 0 g, 0.045 g, 0.225 g, or 0.45 g and allantoin in an amount of 0 g, 50 g, or 500 g per tonne of seeds (MT).
Culture soil was filled into 12-cm vinyl pots, and the coated dent corn seeds were seeded at 4 grains/pot. After germination, a differently grown strain was thinned to retain 3 strains in a pot. Cultivation was performed in a glass greenhouse, and inspection was performed 21 days after seeding. The height, the fresh weight of the aboveground part, and the dry weight of the underground part were measured, and the density (the fresh weight of the aboveground part/the height) was determined. […] The test was repeated 6 times, and the average was determined.
The fresh weight of the aboveground part, the density, and the dry weight of the underground part measured for groups each treated with different amounts of tryptophan and allantoin were indicated as the rates of changes (%), relative to the fresh weight of the aboveground part, the density, and the dry weight of the underground part of plants in the test group (control group) treated with a coating solution not comprising tryptophan or allantoin. […]

[2] = system: wheat; assay: Cultivation of wheat from coated seeds under non-stress conditions; details: 2 weeks after seeding, seed coating Trp 0.045-9 g and/or allantoin 50 g per tonne of seeds
Procedure: (§1) Wheat seeds (100 g, the variety: Yumechikara) were coated with 800 μL of a coating solution comprising tryptophan, allantoin, polyvinyl alcohol, and a coloring dye in water using a coater (SATEC). Coating was performed using either or both of tryptophan in an amount of 0 g, 0.045 g, 0.45 g, 4.5 g, or 9 g and allantoin in an amount of 0 g or 50 g per tonne of seeds.
(§2) Culture soil was filled into 12-cm vinyl pots, and the coated wheat seeds were seeded at 4 grains/pot. After germination, a differently grown strain was thinned to retain 3 strains in a pot. Cultivation was performed in a glass greenhouse, and inspection was performed 2 weeks after seeding. The test was repeated 6 times, and the average was determined.
(§3) The measured fresh weight of the aboveground part of plants in groups each treated with different amounts of tryptophan and allantoin was indicated as the rate of change (%), relative to the fresh weight of the aboveground part of plants in the test group (control group) treated with a coating solution not comprising tryptophan or allantoin.

[3] = system: wheat; assay: Cultivation of wheat from coated seeds under salt stress conditions; details: salt stress (NaCl 4.0 g/L soil), 2 weeks after seeding, seed coating Trp 0.045-9 g and/or allantoin 50 g per tonne of seeds
Procedure: as §1, with “(100 g;” for “(100 g,”
Culture soil comprising sodium chloride at 4.0 g/L of the soil was filled into 7.5-cm pots, and the coated wheat seeds were seeded at 1 grain/pot. Cultivation was performed in a glass greenhouse, and inspection was performed 16 days after seeding. The height and the fresh weight of the aboveground part were measured, and the density (the fresh weight of the aboveground part/the height) was determined. The test was repeated 9 times, and the average was determined.
The density of the test groups treated with different amounts of tryptophan and allantoin was indicated as the rate of change (%), relative to the density of the test group (control group) treated with a coating solution not comprising tryptophan or allantoin.

[4] = system: soybean; assay: Cultivation of soybean from coated seeds under non-stress conditions; details: 3 weeks after seeding, seed coating Trp 0.225-5 g and/or allantoin 25 g per tonne of seeds
Procedure: (§4) Soybean seeds (100 g; the variety: Fukuyutaka) were coated with 800 μL of a coating solution comprising tryptophan, allantoin, polyvinyl alcohol, and a coloring dye in water using a coater (SATEC). Coating was performed using either or both of tryptophan in an amount of 0 g, 0.225 g, 0.45 g, or 5 g and allantoin in an amount of 0 g or 25 g per tonne of seeds.
as §2, with “coated soybean” for “coated wheat”, “performed 3” for “performed 2”
as §3

[5] = system: soybean; assay: Cultivation of soybean from coated seeds under salt stress conditions; details: salt stress (NaCl 1.0 g/L soil), 3 weeks after seeding, seed coating Trp 0.045-5 g and/or allantoin 50 g per tonne of seeds
Procedure: as §4, with “0 g, 0.045 g, 0.225 g,” for “0 g, 0.225 g,”, “g or 50 g per” for “g or 25 g per”
Culture soil comprising sodium chloride at 1.0 g/L of the soil was filled into 7.5-cm pots, and the coated soybean seeds were seeded at 1 grain/pot. Cultivation was performed in a glass greenhouse, and inspection was performed 3 weeks after seeding. The dry weight of the underground part was measured. The test was repeated 9 times, and the average was determined.

[6] = system: Zea mays; assay: Field test of Zea mays (ear yield); details: field cultivation, Belgium; seed coating 0.25 g tryptophan and/or 1000 g allantoin per tonne of seeds
Procedure: In the same manner as in Example 1, Zea mays seeds coated with 0.25 g of tryptophan per tonne of seeds, Zea mays seeds coated with 1000 g of allantoin per tonne of seeds, and Zea mays seeds coated with 0.25 g of tryptophan and 1000 g of allantoin per tonne of seeds were prepared. As a control group, seeds without coating were prepared.
• Location: the Wilderen MAR field, the Kingdom of Belgium • Variety: LIKEiT • Date of seeding: Apr. 27, 2020 • Date of harvesting: Oct. 12, 2020
Cultivation was performed in accordance with the conventional fertilization management technique and pest management technique, and the yield was inspected. • Inspection of yield: 120 strains/group; the number of repetitions: 4

NC(=O)NC1NC(=O)NC1=O (stereo not shown) [allantoin, 5-ureidohydantoin]
rate of change in the fresh weight of the aboveground part relative to control group [1]: 5%
rate of change in the fresh weight of the aboveground part relative to control group [2]: 1%
rate of change in the density relative to control group [3]: 3%
rate of change in the fresh weight of the aboveground part relative to control group [4]: 4%
rate of change in the dry weight of the underground part relative to control group [5]: 2%
ear yield relative to the control group (100%) [6]: 100.4%

N[C@@H](Cc1c[nH]c2ccccc12)C(=O)O [tryptophan, L-tryptophan]
ear yield relative to the control group (100%) [6]: 100.4%
